{"source": "patent US20240254095A1", "about": "“NMDA Receptor Antagonist and Use Thereof” (priority 2021, published 2024)", "note": "Structures can show the parent of a compound that is named as a salt.", "data": [{"biological_target": "T1, human NMDA receptors GluN1 and GluN2A subunits (GluN2A-containing NMDAR) (Homo sapiens, UniProt Q05586+Q12879)", "T1 construct": "expressed in transfected cells; host or cells: HEK293 cells, transient liposome transfection of TRE-GluN1-GluN2A, tTA and pCAG-EGFP", "T1 sequence (Q12879 23-1464, other chains not shown)": "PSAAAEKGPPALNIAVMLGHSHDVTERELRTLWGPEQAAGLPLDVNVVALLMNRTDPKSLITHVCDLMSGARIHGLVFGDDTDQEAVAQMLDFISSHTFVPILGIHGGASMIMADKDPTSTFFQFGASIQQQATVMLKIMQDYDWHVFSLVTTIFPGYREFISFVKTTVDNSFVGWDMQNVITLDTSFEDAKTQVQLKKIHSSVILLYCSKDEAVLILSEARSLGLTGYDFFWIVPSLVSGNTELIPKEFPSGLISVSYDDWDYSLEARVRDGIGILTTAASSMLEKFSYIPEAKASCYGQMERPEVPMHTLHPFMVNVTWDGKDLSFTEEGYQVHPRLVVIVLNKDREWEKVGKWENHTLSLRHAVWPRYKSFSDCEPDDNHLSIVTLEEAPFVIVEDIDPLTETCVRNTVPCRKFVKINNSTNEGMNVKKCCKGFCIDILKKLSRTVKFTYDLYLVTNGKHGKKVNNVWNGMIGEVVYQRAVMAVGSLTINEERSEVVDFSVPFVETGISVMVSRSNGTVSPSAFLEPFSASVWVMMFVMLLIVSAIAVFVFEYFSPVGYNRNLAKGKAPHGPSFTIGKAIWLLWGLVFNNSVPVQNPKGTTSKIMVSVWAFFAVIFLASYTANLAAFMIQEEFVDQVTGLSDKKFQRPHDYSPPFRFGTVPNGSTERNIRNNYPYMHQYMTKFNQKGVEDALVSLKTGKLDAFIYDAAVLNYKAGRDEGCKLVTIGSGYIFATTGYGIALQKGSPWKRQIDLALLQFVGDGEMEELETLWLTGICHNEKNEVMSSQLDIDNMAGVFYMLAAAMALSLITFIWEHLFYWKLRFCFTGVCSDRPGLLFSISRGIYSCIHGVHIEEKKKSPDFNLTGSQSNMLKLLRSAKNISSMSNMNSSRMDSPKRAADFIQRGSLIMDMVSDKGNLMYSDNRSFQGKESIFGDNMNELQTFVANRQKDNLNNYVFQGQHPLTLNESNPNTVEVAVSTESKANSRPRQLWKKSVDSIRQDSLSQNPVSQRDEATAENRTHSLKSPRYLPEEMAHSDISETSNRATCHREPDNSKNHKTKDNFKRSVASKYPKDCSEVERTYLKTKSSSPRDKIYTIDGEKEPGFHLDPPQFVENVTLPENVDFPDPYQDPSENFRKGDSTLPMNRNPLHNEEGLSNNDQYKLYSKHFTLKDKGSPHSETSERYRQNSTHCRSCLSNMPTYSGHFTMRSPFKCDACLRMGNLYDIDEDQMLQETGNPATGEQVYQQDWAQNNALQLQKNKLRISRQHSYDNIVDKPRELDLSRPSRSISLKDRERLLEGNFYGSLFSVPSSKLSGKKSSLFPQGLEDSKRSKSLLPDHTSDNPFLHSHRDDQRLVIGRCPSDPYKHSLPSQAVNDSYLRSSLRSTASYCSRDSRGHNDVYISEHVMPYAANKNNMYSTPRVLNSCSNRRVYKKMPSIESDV", "experiment": "cell-based", "details": "not given", "experimental": "(§1) On the day before transfection, HEK293 cells were seeded in a 24-well plate with a 10 mm glass sheet, which was coated with polylysine in advance to increase the adhesion capacity of the cells. The plate was added with DMEM medium containing 10% FBS and incubated at 37° C., in 5% CO2 incubator. When the cell fusion reached 60%-70% after 18-24 hours, the plasmid cDNAs containing TRE-GluN1-GluN2A of human GluN1 and GluN2A, tTA, and pCAG-EGFP were transfected into HEK293 by liposome transfection (TRE-GluN1-GluN2A:tTA:pCAG-EGFP is 0.2 μg:0.2 μg:0.02 μg). Before transfection, anew DMEM medium was changed and added with 1 μg/mL Dox (doxycycline) to induce stable expression in the medium, and added with 100 μM D-APV and 10 mM MgCl2 to avoid cell excitatory toxicity caused by NMDAR overexpression. Cells with green fluorescence were selected for electrophysiological recording after transfection for about 24 h.\n(§2) A glass plate seeded with HEK293 cells was placed in a recording bath and perfused with the extracellular fluid at a rate of 4 mL/min (NaCl 140 mM, KCl 2.8 mM, HEPES 10 mM, CaCl2 1 mM, glycine 0.1 mM, pH 7.2). The channels of the ALA-VC^3 eight-channel pressure perfusion system were filled with extracellular fluid for washing, extracellular fluid containing glutamic acid (100 μM), and extracellular fluid containing glutamic acid and compound to be tested, respectively, with a drop rate of about 1 drop/sec and 10 μL/drop. HEK293 cells with moderate green fluorescence intensity and good adhesion were selected under a fluorescence microscope for recording. The microglass tube of the perfusion system was placed about ten cells away from the cells to be recorded, and the drug was sprayed to the cell surface under the pressure of air (0.02 MPa). The glass electrode was prepared by drawing with a microelectrode drawing instrument with a resistance of 4-6 MΩ and filled with electrode liquid (CsCl 125 mM, HEPES 10 mM, EGTA 11 mM). The microelectrode manipulator was used to slowly push the glass electrode towards the cells. The electrode was attached to the cell membranes and applied with negative pressure, so that a high-resistance seal of more than 1 GΩ was formed between the electrode tip and the cell membrane, and then negative pressure was given to suck through the cell membrane to form a whole-cell recording mode. After the formation of whole-cell recording mode, the cell membrane potential was clamped at −70 mV. The extracellular fluid containing 100 μM glutamic acid, the extracellular fluid containing 100 μM glutamic acid and the compound to be tested, and the extracellular fluid were sprayed to the cell membrane surface sequentially through the perfusion system for 10 s, 20 s, and 10 s to record the NMDA receptor-mediated current and evaluate the inhibitory effect of the compound on GluN2A-containing NMDAR. The experimental process was controlled by pCLAMP 10.6, and the Digidata 1440A digital-to-analog converter was used to complete the generation of stimulus signal and the acquisition of feedback signal.\n(§3) The ordinate in the figure is the normalized current ratio, which represents the ratio of the current mediated by NMDAR after administration of ketamine and the compound at a concentration of 10 μM to the current mediated by NMDAR before administration. […] Ketamine was used as a positive control.\n(§4) The inhibitory percentages of the compound according to the present disclosure on NMDAR-mediated current=[…]/NMDAR mediated-current before administration*100%.", "units": {"current inhibitory percentages": "%"}, "values": [{"smiles": "CC1(C)CNC2(c3ccccc3)CCCCC2OC1.Cl", "note": "(stereo not drawn) [Compound 20, 3,3-dimethyl-5a-phenyldecahydrobenzo[b][1,4]olanzapine hydrochloride]", "current inhibitory percentages": 64.86}]}, {"biological_target": "T1, human NMDA receptors GluN1 and GluN2A subunits (GluN2A-containing NMDAR)", "experiment": "cell-based", "details": "HEK293, read-out: current inhibitory percentages", "experimental": "as §1, §2, §3, §4", "units": {"inhibition at 10 µM": "%"}, "values": [{"smiles": "CC1(C)CCC2OCCNC2(c2ccccc2)C1", "note": "(stereo not drawn) [Compound 31, 6,6-dimethyl-4a-phenyloctahydro-2H-benzo[b][1,4]oxazine hydrochloride]", "inhibition at 10 µM": 71.6}]}, {"biological_target": "T1, human NMDA receptors GluN1 and GluN2A subunits (GluN2A-containing NMDAR)", "experiment": "cell-based", "details": "NMDAR-mediated current, HEK293 cells expressing human GluN1/GluN2A, 100 μM glutamic acid, clamped at −70 mV; compound 10 μM; read-out: current inhibitory percentages", "experimental": "as §1, §2, §3, §4", "units": {"inhibition at 10 µM": "%"}, "values": [{"smiles": "CC1CCCC2(c3ccccc3)NCCOC12", "note": "(stereo not drawn) [Compound 16, 8-methyl-4a-phenyloctahydro-2H-benzo[b][1,4]oxazine formate]", "inhibition at 10 µM": 107}, {"smiles": "Cc1ccccc1C12CCCCC1OCCN2", "note": "(stereo not drawn) [Compound 12, 4a-(2-methylphenyl)octahydro-2H-benzo[b][1,4]oxazine formate]", "inhibition at 10 µM": 33.7}, {"smiles": "Cc1cscc1[C@]12CCCC[C@H]1OCCN2", "note": "[Compound 40, (4aR,8aR)-4a-(4-methyl-3-thiophenyl)octahydro-2H-benzo[b][1,4]oxazine hydrochloride]", "inhibition at 10 µM": 89.3}, {"smiles": "CCC1CCC2OCCNC2(c2ccccc2)C1", "note": "(stereo not drawn) [Compound 8, 6-ethyl-4a-phenyloctahydro-2H-benzo[b][1,4]oxazine formate]", "inhibition at 10 µM": 28.9}, {"smiles": "CC1CCCC2OCCNC12c1ccccc1", "note": "(stereo not drawn) [Compound 17, 5-methyl-4a-phenyloctahydro-2H-benzo[b][1,4]oxazine formate]", "inhibition at 10 µM": 86.6}, {"smiles": "Fc1cccc(C23CCCCC2OCCN3)c1", "note": "(stereo not drawn) [Compound 3, 4a-(3-fluorophenyl)octahydro-2H-benzo[b][1,4]oxazine hydrochloride]", "inhibition at 10 µM": 21.2}, {"smiles": "Clc1cccc(C23CCCCC2OCCN3)c1Cl", "note": "(stereo not drawn) [Compound 26, 4a-(2,3-dichlorophenyl)octahydro-2H-benzo[b][1,4]oxazine hydrochloride]", "inhibition at 10 µM": 92}, {"smiles": "CCOc1cccc(C23CCCCC2OCCN3)c1", "note": "(stereo not drawn) [Compound 33, 4a-(3-ethoxyphenyl)octahydro-2H-benzo[b][1,4]oxazine hydrochloride]", "inhibition at 10 µM": 76.4}, {"smiles": "Fc1cccc(C23CCCCC2OCCN3)c1F", "note": "(stereo not drawn) [Compound 5, 4a-(2,3-difluorophenyl)octahydro-2H-benzo[b][1,4]oxazine formate]", "inhibition at 10 µM": 54.5}, {"smiles": "c1ccc(C23CCCCC2OCCN3)cc1", "note": "(stereo not drawn) [Compound 1, 4a-phenyloctahydro-2H-benzo[b][1,4]oxazine hydrochloride]", "inhibition at 10 µM": 115}, {"smiles": "COc1ccc(C23CCCCC2OCCN3)c(Cl)c1", "note": "(stereo not drawn) [Compound 34, 4a-(2-chloro-4-methoxyphenyl)octahydro-2H-benzo[b][1,4]oxazine hydrochloride]", "inhibition at 10 µM": 48.6}, {"smiles": "COc1cccc(C23CCCCC2OCCN3)c1", "note": "(stereo not drawn) [Compound 21, 4a-(3-methoxyphenyl)octahydro-2H-benzo[b][1,4]oxazine hydrochloride]", "inhibition at 10 µM": 71.5}, {"smiles": "CC1CCC2(c3ccccc3)NCCOC2C1", "note": "(stereo not drawn) [Compound 18, 7-methyl-4a-phenyloctahydro-2H-benzo[b][1,4]oxazine formate]", "inhibition at 10 µM": 84.4}, {"smiles": "Fc1ccc(C23CCCCC2OCCN3)cc1F", "note": "(stereo not drawn) [Compound 30, 4a-(3,4-difluorophenyl)octahydro-2H-benzo[b][1,4]oxazine hydrochloride]", "inhibition at 10 µM": 86.6}, {"smiles": "Cc1cccc(C)c1C12CCCCC1OCCN2", "note": "(stereo not drawn) [Compound 24, 4a-(2,6-dimethylphenyl)octahydro-2H-benzo[b][1,4]oxazine hydrochloride]", "inhibition at 10 µM": 73.7}, {"smiles": "CC(C)c1ccccc1C12CCCCC1OCCN2", "note": "(stereo not drawn) [Compound 27, 4a-(2-isopropylphenyl)octahydro-2H-benzo[b][1,4]oxazine hydrochloride]", "inhibition at 10 µM": 85.6}, {"smiles": "FC(F)(F)c1ccc(C23CCCCC2OCCN3)cc1", "note": "(stereo not drawn) [Compound 23, 4a-(4-(trifluoromethyl)phenyl)octahydro-2H-benzo[b][1,4]oxazine hydrochloride]", "inhibition at 10 µM": 9.25}, {"smiles": "Cc1ccc(C)c(C23CCCCC2OCCN3)c1", "note": "(stereo not drawn) [Compound 28, 4a-(2,5-dimethylphenyl)octahydro-2H-benzo[b][1,4]oxazine hydrochloride]", "inhibition at 10 µM": 87.8}, {"smiles": "Fc1cccc(C23CCCCC2OCCN3)c1Cl", "note": "(stereo not drawn) [Compound 29, 4a-(2-chloro-3-fluorophenyl)octahydro-2H-benzo[b][1,4]oxazine hydrochloride]", "inhibition at 10 µM": 85.7}]}]}
